Measurements as given in publication PMC12858405, “Ideal efficacy photoswitching for chromocontrol of TRPC4/5 channel functions in live tissues” (Nature Chemical Biology, 2026).

Test: PSS E/Z ratios by HPLC
Assay type: physicochemical
Conditions: for PSS % E at 330 nm / PSS % E at 340 nm / PSS % E at 350 nm / PSS % E at 360 nm / PSS % E at 370 nm / PSS % E at 380 nm / PSS % E at 390 nm / PSS % E at 400 nm / PSS % E at 410 nm / PSS % E at 420 nm / PSS % E at 430 nm / PSS % E at 440 nm / PSS % E at 450 nm / PSS % E at 460 nm / PSS % E at 470 nm / PSS % E at 480 nm / PSS % E at 490 nm / PSS % E at 500 nm / PSS % Z at 330 nm / PSS % Z at 340 nm / PSS % Z at 350 nm / PSS % Z at 360 nm / PSS % Z at 370 nm / PSS % Z at 380 nm / PSS % Z at 390 nm / PSS % Z at 400 nm / PSS % Z at 410 nm / PSS % Z at 420 nm / PSS % Z at 430 nm / PSS % Z at 440 nm / PSS % Z at 450 nm / PSS % Z at 460 nm / PSS % Z at 470 nm / PSS % Z at 480 nm / PSS % Z at 490 nm / PSS % Z at 500 nm: monochromator, HPLC integration (296 nm)
Procedure: UV-VIS. UV-Vis spectra were recorded on an Agilent Cary 60 UV-Vis spectrophotometer using 1 cm quartz or PMMA cuvettes. All photoisomerisations were performed at room temperature in non-degassed solvents unless stated differently. Samples were irradiated with either a CoolLED pE-4000 or Polycon V monochromator (TILL Photonics, Gräfelfing, Germany) by shining from the […]
differently, all measurements were performed at a default concentration of 20 μM. Dark state refers […]
methods followed standard practices39–41. All-E and PSS spectra are shown in Supplementary […]
HPLC for PSS E/Z ratios. Analytical HPLC was performed on an Agilent 1200 SL with (a) a binary pump able to deliver H2O:MeCN eluent mixtures containing 0.1% formic acid at a 1 mL/min flow rate [for PSS measurements of final compounds, only MeCN was used], (b) YMC Carotenoid 5 µm, […]
(100 µM, MeCN) in HPLC vials were irradiated for at least 6 min from top with the monochromator […]
separate well); PSS ratio was then determined by integrating the signal at an isosbestic region

Row | PSS %E around 410 nm | PSS %Z around 360 nm | PSS % E at 330 nm | PSS % E at 340 nm | PSS % E at 350 nm | PSS % E at 360 nm | PSS % E at 370 nm | PSS % E at 380 nm | PSS % E at 390 nm | PSS % E at 400 nm | PSS % E at 410 nm | PSS % E at 420 nm | PSS % E at 430 nm | PSS % E at 440 nm | PSS % E at 450 nm | PSS % E at 460 nm | PSS % E at 470 nm | PSS % E at 480 nm | PSS % E at 490 nm | PSS % E at 500 nm | SMILES | also measured
1 | ~ 82% | 95% | 16% | 8% | 5% | 5% | 11% | 23% | 38% | 79% | 84% | 84% | 82% | 80% | 77% | 74% | 70% | 67% | 64% | 61% | Cn1c(=O)n(CCCO)c(=O)c2c1nc(Oc1ccc(N=Nc3ccccc3)c(OC(F)(F)F)c1)n2Cc1ccc(Cl)cc1 [AzPico] | PSS % Z at 330 nm: 84%; PSS % Z at 340 nm: 92%; PSS % Z at 350 nm: 95%; PSS % Z at 360 nm: 95%; PSS % Z at 370 nm: 89%; PSS % Z at 380 nm: 77%; PSS % Z at 390 nm: 62%; PSS % Z at 400 nm: 21%; PSS % Z at 410 nm: 16%; PSS % Z at 420 nm: 16%; PSS % Z at 430 nm: 18%; PSS % Z at 440 nm: 20%; PSS % Z at 450 nm: 23%; PSS % Z at 460 nm: 27%; PSS % Z at 470 nm: 30%; PSS % Z at 480 nm: 33%; PSS % Z at 490 nm: 36%; PSS % Z at 500 nm: 39%
2 | ~ 82% | 95% | 21% | 6% | 4% | 4% | 7% | 23% | 52% | 74% | 81% | 80% | 79% | 76% | 72% | 68% | 63% | 59% | 55% | 52% | Cn1c(=O)n(CCCO)c(=O)c2c1nc(Oc1ccc(N=Nc3ccccc3)c(Cl)c1)n2Cc1ccc(Cl)cc1 [AzHC] | PSS % Z at 330 nm: 79%; PSS % Z at 340 nm: 94%; PSS % Z at 350 nm: 96%; PSS % Z at 360 nm: 96%; PSS % Z at 370 nm: 93%; PSS % Z at 380 nm: 78%; PSS % Z at 390 nm: 48%; PSS % Z at 400 nm: 26%; PSS % Z at 410 nm: 19%; PSS % Z at 420 nm: 20%; PSS % Z at 430 nm: 21%; PSS % Z at 440 nm: 24%; PSS % Z at 450 nm: 28%; PSS % Z at 460 nm: 32%; PSS % Z at 470 nm: 37%; PSS % Z at 480 nm: 41%; PSS % Z at 490 nm: 45%; PSS % Z at 500 nm: 48%
